Columns and labels:
Assay type in all cases: binding
[1] = test system: methamphetamine antibody; experiment: Cross-reactivity of METH sensor (capillary competitive chemiluminescent ELISA); details: target analyte METH, challenging analyte in sweat 1.6-10,000 ng/mL vs METH-HRP 4000x, IC50 ratio Eq. (1)
From the text: (§1) In order to develop a sensor array that can quantify the presence of multiple analytes simultaneously, it is important to examine their cross-reactivity. Using the methadone as an example, methadone was the target analyte and channels of the capillary sensor were first coated with methadone antibody. After blocking, serial concentrations of the challenging analytes, METH, amphetamine, or THC, were individually mixed with methadone-HRP and withdrawn into the capillaries. The challenging analyte molecules (e.g., METH) competed with methadone-HRP for the methadone antibody coated on the capillary surface. Cross-reactivity is calculated as follows: […]
(§2) In order to perform multiplexed detection of drugs in sweat, first the cross-reactivity of the capillary-based sensors is examined. The capillary coated with the antibody intended for detecting one particular drug (i.e., target analyte) is challenged with various concentrations of the other three drugs (i.e., challenging analytes). Here, the concentrations of 10,000 ng/mL, 5,000 ng/mL, 400 ng/mL, 80 ng/mL, and 1.6 ng/mL for the challenging analytes in sweat are used. […] One exception is the 3.1% cross-reactivity of METH sensor to amphetamine, which is due to the structural similarities between METH and amphetamine.
(§3) The final concentration of competing drug conjugates was 2000×, 4000×, 15000×, and 4000× for methadone-HRP, METH-HRP, amphetamine-HRP, and THC-HRP, respectively, in corresponding sensors.

[2] = test system: tetrahydrocannabinol antibody; experiment: Cross-reactivity of THC sensor (capillary competitive chemiluminescent ELISA); details: target analyte THC; challenging analyte in sweat 1.6-10,000 ng/mL vs THC-HRP 4000x; IC50 ratio Eq. (1)
From the text: as §1, §2, §3

[3] = test system: corresponding antibody coated on capillary inner surface; experiment: Detection of individual drugs in artificial sweat, inhibition curves (capillary competitive chemiluminescent ELISA); details: y = a + b/(1+(x/x0)^p), x in ng/mL; used as calibration curve
[4] = test system: methadone antibody; experiment: Cross-reactivity of methadone sensor (capillary competitive chemiluminescent ELISA); details: target analyte methadone; challenging analyte in sweat 1.6-10,000 ng/mL vs methadone-HRP 2000x; IC50 ratio Eq. (1)
From the text: as §1, §2, §3

[5] = test system: amphetamine antibody; experiment: Cross-reactivity of amphetamine sensor (capillary competitive chemiluminescent ELISA); details: target analyte amphetamine; challenging analyte in sweat 1.6-10,000 ng/mL vs amphetamine-HRP 15000x; IC50 ratio Eq. (1)
From the text: as §1, §2, §3

SMILES: CC(N)Cc1ccccc1 (stereo not shown) [Amphetamine, amphetamine]
- Cross-reactivity (100%) [1]: 3.1%
- Cross-reactivity (100%) ([1]; listed as amphetamine): 3.1%
- Cross-reactivity (100%) [2]: <0.4%
- midpoint parameter of logistic fit of inhibition curve B/B0 (%) [3]: 1473.04 ng/mL
- Cross-reactivity (100%) [4]: <0.001%

SMILES: CN[C@@H](C)Cc1ccccc1 [METH, methamphetamine]
- Cross-reactivity (100%) [2]: <0.4%
- midpoint parameter of logistic fit of inhibition curve B/B0 (%) [3]: 7.63 ng/mL
- Cross-reactivity (100%) [4]: <0.001%
- Cross-reactivity (100%) [5]: 0.07%

SMILES: CCC(=O)C(CC(C)N(C)C)(c1ccccc1)c1ccccc1 (stereo not shown) [Methadone, methadone]
- Cross-reactivity (100%) [1]: <0.04%
- Cross-reactivity (100%) [2]: <0.4%
- Cross-reactivity (100%) [5]: <0.02%

SMILES: CCCCCc1cc(O)c2c(c1)OC(C)(C)[C@@H]1CCC(C)=C[C@@H]21 [THC, tetrahydrocannabinol]
- Cross-reactivity (100%) [1]: <0.04%
- midpoint parameter of logistic fit of inhibition curve B/B0 (%) [3]: 5.95 ng/mL
- Cross-reactivity (100%) [4]: <0.001%
- Cross-reactivity (100%) [5]: <0.02%

From patent US20230051263A1, “DEVICE FOR RAPID AND QU[…] OF DRUGS OF ABUSE IN SWEAT” (THE REGENTS OF THE UNIVERSITY OF MICHIGAN, priority 2020, published 2023)
